Data on four molecules can be found in patent US9439942B2, “Peptides and use thereof in the treatment of large cell lung cancer” (Biokine Therapeutics Ltd., priority 2012, dated 2016).

For data set [1], the system named is bone marrow derived cells. The note with it: cited from earlier work.
In data set [2] the test system is H460 cells (large cell carcinoma). Description: Proliferation / survival assay and Giemsa stain, H460. The note with it: for H460 tumor cell proliferation, agent alone: 0.1 μg/ml, did not completely inhibit proliferation. In kind it is cell-based, human. The procedure:
(§1) Color extraction was done using 0.1 N HCl. […] 6 wells were determined for each time point.

Data set [3] shares this test system. The data set can be described thus: Colony assay (agar), H460. Format: cell-based, human. How it is done:
(§2) The H460 (large cell carcinoma), A549 (Adenocarcinoma), H358 (Bronchoalveolar carcinoma), H1299 (large cell carcinoma)—cell lines were all purchased from ATCC and were maintained in RPMI (Gibco Laboratories, Grand Island, N.Y.) containing 10% fetal calf serum (FCS), 1 mM L-glutamine, 100 U/ml penicillin, and 0.01 mg/ml streptomycin (Biological Industries, Kibbutz Beth Haemek, Israel). L-4 (a primary NSCLC cell line) was generated from large cell carcinoma as previously described (Wald et al, J Thorac Cardiovasc Surg. 2011 June; 141(6): 1503-12).
(§3) Agar base layer was prepared as follows: 45 ml of RPMI+12% FCS was mixed with 15 ml of RPMI X2+12% FCS and with 15 ml of 2.5% agar in double distilled water. Tumor cells were suspended in RPMI+10% FCS. Cell suspension was mixed in a ratio of 1:3 with the agar base solution. This mixture was then plated on top of a preformed solid agar base. […] Fourteen days later, the number of colonies was counted in ten different fields.
(§4) Data was expressed as mean ±standard error (SE) and as absolute values. Continuous data with normal distribution were analyzed using T-test. Categorical data were analyzed using Mann-Whitney U test. A p value of 0.05 was considered significant. * P<0.05, ** P<0.01. Statistical analyses were performed using (SPSS software, (IBM).

In data set [4] the test system is H460 derived tumors. The data set can be described thus: H460 derived xenograft growth in Nude mice. In kind it is in vivo. As to conditions: BKT140 400 μg/mice S.C. once daily 6/7 days a week. How it is done: (§5) 1*10^6 H460 cells mixed in 100 μl RPMI 1640 and 100 μl matrigel (BD Bioscience) were injected subcutaneously (S.C.) into the right flank of Nude mice. Tumor growth was followed for 19 days. 1*10^6 A549 cells mixed in 100 μl RPMI 1640 and 100 μl matrigel (BD Bioscience) were injected S.C. into the right flank of Nude mice. Tumor growth was followed for 35 days. Systemic BKT140 administration was performed as follows: BKT140 (400 μg/mice dissolved in PBS) was administered once daily 6/7 days a week, by S.C. injection into the left flank at a point distant at least 1.5 cm from the right sided tumor. Tumors size was calculated by measurement of tumor length and width using the following formula: 4/3*π*(length/2)*(width/2)^2.

In data set [5] the test system is H358 cells (Bronchoalveolar carcinoma). Description: Colony assay (agar), H358. Format: cell-based, human. The note with it: 100 μg\ml BKT140 with CXCL12. How it is done:
as §2, §3, §4

For data set [6], the system named is A549 cells (Adenocarcinoma). The data set can be described thus: Colony assay (agar), A549. Format: cell-based, human. How it is done:
as §2, §3, §4

The subject of data set [7] is A549 cells (Adenocarcinoma). As to conditions: for A549 tumor cell proliferation, agent alone: 0.1 μg/ml, did not completely inhibit proliferation.
Description: To measure cell proliferation, 4000 cells were seeded into 96-well cell culture plates with 200 μl RPMI 1640 medium supplemented with 10% FCS under the following conditions: 37° C., and 5% CO2. Twenty-four hours later, the medium was to changed to RPMI 1640 supplemented with 1% FCS. 20 μg\ml, 50 μg/ml or 100 μg\ml BKT140, with or without Cisplatin 0.1 μg/ml or paclitaxel 0.1 μg/ml to 1 μg/ml μg/ml were added to the medium. For radiation experiments, prior to plating of cells, the cells were irradiated at the following doses 500 to 2000 Rad. Cultured cells were fixed with 2.5% Gluteraldehyde at the indicated time points and stained with 1% Methylene Blue. Color extraction was done using 0.1 N HCl. Absorbance of the solution in each well at 570 nm was read with micro-plate reader (Anthos Htll). 6 wells were determined for each time point.
Data set [8] concerns NSCLC cell lines (H358, A549, H460, H1299 and L4). Description: Colony assay (agar), NSCLC cell lines. Format: cell-based, human. How it is done:
as §2, §3, §4

In data set [9] the target is T1, human CXCR4 (Homo sapiens, UniProt P61073).
T1 construct: Tissue sections from H460 derived tumors were tested for CXCR4 expression; endogenous in cells; host or cells: H460 NSCLC cells grown as subcutaneous xenografts in Nude mice
T1 sequence (P61073 whole entry): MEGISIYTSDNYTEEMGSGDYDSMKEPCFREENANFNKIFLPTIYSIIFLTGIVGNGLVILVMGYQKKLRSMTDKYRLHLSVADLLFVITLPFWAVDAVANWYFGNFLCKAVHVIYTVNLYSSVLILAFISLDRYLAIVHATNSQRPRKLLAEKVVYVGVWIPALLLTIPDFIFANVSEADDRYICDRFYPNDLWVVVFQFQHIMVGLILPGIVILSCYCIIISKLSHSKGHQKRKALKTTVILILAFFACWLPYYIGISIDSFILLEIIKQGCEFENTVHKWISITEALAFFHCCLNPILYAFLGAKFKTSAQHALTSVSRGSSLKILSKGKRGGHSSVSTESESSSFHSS
Description: Immunohistochemistry for CXCR4 in H460 derived tumors after S.C. BKT140. In kind it is in vivo. The note with it: BKT140 S.C. at a site distant from the tumor, 6 hours prior to sacrification. The procedure: as §5
Tissue sections of tumor-bearing Nude mice were routinely fixed with formalin and embedded in paraffin. Antigen retrieval was performed, and sections were stained with either mAb 44708 (R&D Systems, Minneapolis, MN) or 12G5 (R&D Systems) for human CXCR4 (1:100) using a standard indirect avidin-biotin HRP method according to the manufacturer's instructions. 3-Amino-9-ethylcarbazole was used for color development and sections were counterstained with hematoxylin. As negative controls, sections were stained either with no primary Ab (PBS) or with an isotype-matched control Ab.

The subject of data set [10] is NSCLC cell lines (H358, A549, H460, H1299 and L4). The data set can be described thus: Proliferation and survival assays, NSCLC cell lines. In kind it is cell-based, human. As to conditions: 20 or 100 μg/ml BKT140, dose dependant. How it is done: as §1
In data set [11] the test system is H1299 cells (large cell carcinoma). The data set can be described thus: Colony assay (agar), H1299. Format: cell-based, human. The note with it: 100 μg\ml BKT140 with CXCL12. How it is done: as §2, §3, §4
The subject of data set [12] is A549 derived tumors. The data set can be described thus: A549 derived xenograft growth in Nude mice. Format: in vivo. As to conditions: BKT140 400 μg/mice S.C. once daily 6/7 days a week. How it is done: as §5
Where [13] appears, read: increasing BKT140 with irradiation 500 Rad, cisplatin 0.1 μg/ml or paclitaxel 0.1 μg/ml (paclitaxel data not shown).

Entries after “also recorded” stand apart in the source; their conditions may differ. Like-named read-outs stand apart in the source and are kept apart here. Non-standard residues stand in square brackets, D forms with d. *: point of attachment. Benzoyl(4-F) = O=C(c1ccc(F)cc1)*; Cit = NC(=O)NCCC[C@H](N)C(=O)O

“4F-benzoyl-Arg-Arg-Nal-Cys-Tyr-Cit-Lys-DLys-Pro-Tyr-Arg-Cit-Cys-Arg-NH2 ({Benzoyl(4-F)}-RR[Nal]CY[Cit]K[dK]PYR[Cit]CR-NH2; cysteine pairing not given here) [BKT140]”: in data set [1] (post BKT140 injection), the “time of return of mobilization to base line” value is 24 h. Moreover, the “time of peak mobilization of bone marrow derived cells” value in data set [1] (post S.C. injection) was “four to eight”. The “H460 tumor cell proliferation” value in data set [2] (BKT140 20 μg/ml) is reported as “completely arrest”. Moreover, the H460 cytotoxic effect result in data set [2] (BKT140 100 μg/ml) is “tumor cell death”. Moreover, in data set [2] (setting [13]), the “H460 proliferation, combination effect” value is listed as “additive anti proliferative effects”. The “inhibitory effect on colony formation (compared between cell lines)” value in data set [3] (100 μg\ml BKT140 with CXCL12) is “most evident”; in [5], “least evident”; in data set [6] (100 μg\ml BKT140 with CXCL12), “least evident”; in [11], “most evident”. For the same molecule, the “volume / development of H460 derived tumors” value in data set [4] (19 days) was “significantly reduced; also recorded: significantly delayed”. For the same molecule, the “decrease of median tumor volume” value in data set [4] (H460) and in [12] (A549) was approximately 50% in each case. Also, the “A549 tumor cell proliferation” value is “did not affect” in [7] (BKT140 20 μg/ml) and “significantly reduced” in data set [7] (BKT140 100 μg/ml). For the same molecule, the “A549 proliferation, combination effect” value in [7] (setting [13]) is reported as “additive anti proliferative effects”. Also, the colony formation entry in [8] (single dose of 100 μg\ml BKT140 on day one, over entire range of CXCL12 concentrations) was “reduced colony formation”. In addition, the “CXCR4 staining of tumor tissue (binding to tumor expressed CXCR4)” value in [9] is recorded as “completely blocked CXCR4 staining”. In addition, the “NSCLC proliferation (cytostatic / cytotoxic effect)” value in data set [10] was “inhibited; also recorded: both cytostatic and cytotoxic effects”. The tumor cell survival result in data set [10] is “reduced tumor cell survival”. In addition, the “volume / development of A549 derived tumors” value in data set [12] (35 days) is given as “much reduced effect”.
As to `N.N.[Cl][Pt][Cl]` [cisplatin, reference compound], the “H460 tumor cell proliferation, agent alone” value in data set [2] was “moderate anti-proliferative effect”. Further, in data set [7], the “A549 tumor cell proliferation, agent alone” value is on record as “moderate anti-proliferative effect”.
Turning to `CC(=O)O[C@H]1C(=O)[C@@]2(C)[C@H]([C@H](OC(=O)c3ccccc3)[C@]3(O)C[C@H](OC(=O)[C@H](O)[C@@H](NC(=O)c4ccccc4)c4ccccc4)C(C)=C1C3(C)C)[C@]1(OC(C)=O)CO[C@@H]1C[C@@H]2O` [paclitaxel, reference compound], the “H460 tumor cell proliferation, agent alone” value in [2] was “moderate anti-proliferative effect”. Moreover, the “A549 tumor cell proliferation, agent alone” value in data set [7] is listed as “moderate anti-proliferative effect”.
In the case of “CXCL12: The chemokine CXCL12 (stromal-derived factor-1 or SDF-1), the only natural ligand of CXCR4”, the results for the “fold increase in colony number” value in data set [3] (250 ng/ml CXCL12) and in data set [6] (similar CXCL12 concentrations (250 ng/ml)) were 2.5 fold and 1.4 fold, respectively. Besides, in data set [8] (CXCL12 25-250 ng/ml, colonies counted after fourteen days), the colony formation result is reported as “dose dependant increase in colony formation”.
